Source: patent EP0539587A1, “ANTI[…]” (TSUMURA & CO., priority 1991, dated 1992)
Structures can show the parent of a compound that is named as a salt.

Assays:
[1] = target: Human immunodeficiency virus reverse transcriptase (Human immunodeficiency virus type 1 group M subtype B, UniProt P04585); assay: Effects on reverse transcriptase activity ([3H]deoxythymidine triphosphate uptake into DNA); format: biochemical; settings: reverse transcriptase inhibitory activity; 30 minutes at 37°C; polyrA-oligo dT template-primer; read-out: 50% inhibitory concentration (IC50) (converted)
Experimental: A reaction mixture having the composition indicated below was prepared.
50 µl of this reaction mixture was allowed to react for 30 minutes at 37°C.
Quantitative determination of the reaction product in the form of DNA was performed by measuring the uptake of the radioactivity of [³H]deoxythymidine triphosphate into DNA using ion exchange filter paper, taking that to represent reverse transcriptase inhibitory activity, and calculating the 50% inhibitory concentration (IC₅₀) of the test compound.

[2] = system: human immunodeficiency virus; assay: Test of anti-AIDS virus activity using clone H9 cells (p24 antigen in culture supernatant); format: cell-based; settings: Human immunodeficiency virus 1, 120 h, p24 antigen in culture supernatant after 5 days, read-out: Rate of Inhibition (%)
Experimental: 1 x 10⁶ clone H9 cells (©T-cells) were placed in individual culture tubes. The serially diluted test drug was then placed in each tube. Roughly 100TCID₅₀ of human immunodeficiency virus (culture supernatant of H9/HTLV-IIIB cells) were then placed in each tube to infect the above-mentioned cells. After incubating the tubes for 1 hour at 37°C in the presence of 5% CO₂, the unabsorbed viral particles and test substance were removed by centrifugal separation (x3000 g, 5 minutes). Moreover, after again centrifugally washing (x3000 g, 5 minutes) the cells with fresh culture liquid, fresh culture liquid was added to each tube to prepare cell suspensions having a concentration of 0.2 x 10⁶ cells per milliliter. 0.5 ml of these cell suspensions were added to each well of a 24 well culture plate containing 0.5 ml of the serially diluted test drug. After incubating this plate for 5 days at 37°C in the presence of 5% CO₂, the amount of p24, which is the human immunodeficiency virus antigen in the culture supernatant, was measured, followed by calculation of the rate of inhibition (%) at the concentrations of the test drug indicated below.

Compound: O=C(O)/C=C(\C(=O)O[C@H]1[C@@H]2OC(=O)c3cc(O)c(O)c(O)c3-c3c(cc(O)c(O)c3O)C(=O)OC[C@H]1O[C@@H](OC(=O)c1cc(O)c(O)c(O)c1)[C@@H]2O)[C@H]1c2c(cc(O)c(O)c2O)C(=O)O[C@@H]1C(=O)O [Specific Example 1, repandusinic acid A monopotassium salt]
- IC50 [1]: 103 nM
- inhibition at 0.195 µg/mL ([2]; 0.195 µg/ml): 27.8%
- inhibition at 3.125 µg/mL ([2]; 3.125 µg/ml): 66.7%
- inhibition at 12.5 µg/mL ([2]; 12.5 µg/ml): 94.4%
